Source: PubChem BioAssay AID1963980 (Molecular Pharmacology Branch, DTP, NCI, 2024)

System: 475296-252-R-J1-PDC spheroid viability
Assay: Anticancer human tumor 475296-252-R-J1-PDC patient-derived rectal carcinoma cell line growth inhibition [PI3K]
Conditions: spheroids with HUVEC and MSC; for IC50: curve of first compound; for viability, T/C: stronger effect = lower value; active = viability on the fitted dose curve at most 10% of control; inactive = the rest
In short: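 We assembled tumor spheroids that included a stromal compartment of HUVEC and MSCs, then exposed them to targeted agents alone and together with PI3K pathway inhibitors. Concentration series descended by half-log from clinically achievable Cmax levels. Viability served as the endpoint.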

[1] = second compound 0.0316 µM, first compound 0.0316 µM
[2] = second compound 0.0316 µM, first compound 0.1 µM
[3] = second compound 0.1 µM, first compound 0.0316 µM
[4] = second compound 0.1 µM, first compound 0.1 µM
[5] = second compound 0.316 µM, first compound 0.0316 µM
[6] = second compound 0.316 µM, first compound 0.1 µM
[7] = second compound 1 µM, first compound 0.0316 µM
[8] = second compound 1 µM, first compound 0.1 µM
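Note: spheroids exposed to agents for seven days before readout.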

Cn1ncnc1[C@H]1c2n[nH]c(=O)c3cc(F)cc(c23)N[C@@H]1c1ccc(F)cc1 + CC(Nc1ncnc2nc[nH]c12)c1cc2cccc(Cl)c2c(=O)n1-c1ccccc1
> 0.1 µM: IC50 (second compound 0.0316 µM) | IC50 (second compound 0.1 µM) | IC50 (second compound 0.316 µM) | IC50 (second compound 1 µM) | IC50 (second compound 3.16 µM) | IC50 (second compound 10 µM)
inactive: viability, T/C (second compound 0.0316 µM, first compound 0.000316 µM) 94.1% | viability, T/C (second compound 0.0316 µM, first compound 0.001 µM) 94.3% | viability, T/C (second compound 0.0316 µM, first compound 0.00316 µM) 87.4% | viability, T/C (second compound 0.0316 µM, first compound 0.01 µM) 90.7% | viability, T/C [1] 107% | viability, T/C [2] 96.8% | viability, T/C (second compound 0.1 µM, first compound 0.000316 µM) 96.5% | viability, T/C (second compound 0.1 µM, first compound 0.001 µM) 87.5% | viability, T/C (second compound 0.1 µM, first compound 0.00316 µM) 96.8% | viability, T/C (second compound 0.1 µM, first compound 0.01 µM) 91.6% | viability, T/C [3] 95.7% | viability, T/C [4] 88.9% | viability, T/C (second compound 0.316 µM, first compound 0.000316 µM) 91% | viability, T/C (second compound 0.316 µM, first compound 0.001 µM) 85.8% | viability, T/C (second compound 0.316 µM, first compound 0.00316 µM) 98.9% | viability, T/C (second compound 0.316 µM, first compound 0.01 µM) 99.5% | viability, T/C [5] 102% | viability, T/C [6] 106% | viability, T/C (second compound 1 µM, first compound 0.000316 µM) 85.8% | viability, T/C (second compound 1 µM, first compound 0.001 µM) 103% | viability, T/C (second compound 1 µM, first compound 0.00316 µM) 104% | viability, T/C (second compound 1 µM, first compound 0.01 µM) 103% | viability, T/C [7] 112% | viability, T/C [8] 92.7% | viability, T/C (second compound 3.16 µM, first compound 0.000316 µM) 89.7% | viability, T/C (second compound 3.16 µM, first compound 0.001 µM) 86% | viability, T/C (second compound 3.16 µM, first compound 0.00316 µM) 91% | viability, T/C (second compound 3.16 µM, first compound 0.01 µM) 80.7% | viability, T/C (second compound 3.16 µM, first compound 0.0316 µM) 90.1% | viability, T/C (second compound 3.16 µM, first compound 0.1 µM) 89.8% | viability, T/C (second compound 10 µM, first compound 0.000316 µM) 97% | viability, T/C (second compound 10 µM, first compound 0.001 µM) 85% | viability, T/C (second compound 10 µM, first compound 0.00316 µM) 85.4% | viability, T/C (second compound 10 µM, first compound 0.01 µM) 90.7% | viability, T/C (second compound 10 µM, first compound 0.0316 µM) 95.2% | viability, T/C (second compound 10 µM, first compound 0.1 µM) 83.7%

CC1(C)CCC(CN2CCN(c3ccc(C(=O)NS(=O)(=O)c4ccc(NCC5CCOCC5)c([N+](=O)[O-])c4)c(Oc4cnc5[nH]ccc5c4)c3)CC2)=C(c2ccc(Cl)cc2)C1 + COc1c(OCCCN2CCOCC2)ccc2c3n(c(=NC(=O)c4cnc(N)nc4)nc12)CCN3
5.62 µM: IC50 (second compound 1 µM)
inactive: viability, T/C (second compound 0.00316 µM, first compound 0.0316 µM) 107% | viability, T/C (second compound 0.00316 µM, first compound 0.1 µM) 85.6% | viability, T/C (second compound 0.00316 µM, first compound 0.316 µM) 111% | viability, T/C (second compound 0.00316 µM, first compound 1 µM) 86.3% | viability, T/C (second compound 0.00316 µM, first compound 3.16 µM) 105% | viability, T/C (second compound 0.00316 µM, first compound 10 µM) 68.7% | viability, T/C (second compound 0.01 µM, first compound 0.0316 µM) 96.2% | viability, T/C (second compound 0.01 µM, first compound 0.1 µM) 97.9% | viability, T/C (second compound 0.01 µM, first compound 0.316 µM) 87.5% | viability, T/C (second compound 0.01 µM, first compound 1 µM) 104% | viability, T/C (second compound 0.01 µM, first compound 3.16 µM) 86% | viability, T/C (second compound 0.01 µM, first compound 10 µM) 67.3% | viability, T/C [1] 98.6% | viability, T/C [2] 85.8% | viability, T/C (second compound 0.0316 µM, first compound 0.316 µM) 82.5% | viability, T/C (second compound 0.0316 µM, first compound 1 µM) 93.5% | viability, T/C (second compound 0.0316 µM, first compound 3.16 µM) 79.8% | viability, T/C (second compound 0.0316 µM, first compound 10 µM) 64% | viability, T/C [3] 91.8% | viability, T/C [4] 80.7% | viability, T/C (second compound 0.1 µM, first compound 0.316 µM) 78% | viability, T/C (second compound 0.1 µM, first compound 1 µM) 85% | viability, T/C (second compound 0.1 µM, first compound 3.16 µM) 70.6% | viability, T/C (second compound 0.1 µM, first compound 10 µM) 66.7% | viability, T/C [5] 67% | viability, T/C [6] 72.3% | viability, T/C (second compound 0.316 µM, first compound 0.316 µM) 63.7% | viability, T/C (second compound 0.316 µM, first compound 1 µM) 62% | viability, T/C (second compound 0.316 µM, first compound 3.16 µM) 66.8% | viability, T/C (second compound 0.316 µM, first compound 10 µM) 59.4% | viability, T/C [7] 63.2% | viability, T/C [8] 61.9% | viability, T/C (second compound 1 µM, first compound 0.316 µM) 58.8% | viability, T/C (second compound 1 µM, first compound 1 µM) 57.3% | viability, T/C (second compound 1 µM, first compound 3.16 µM) 62.4% | viability, T/C (second compound 1 µM, first compound 10 µM) 39.5%
> 10 µM: IC50 (second compound 0.00316 µM) | IC50 (second compound 0.01 µM) | IC50 (second compound 0.0316 µM) | IC50 (second compound 0.1 µM) | IC50 (second compound 0.316 µM)
